A word on the pKd: it is the negative decadic logarithm of the Kd, by convention in mol/L.

pKd: −log10 of the molar value. Peptide text beside a SMILES is read from it. * marks the point of attachment. Palmitoyl = CCCCCCCCCCCCCCCC(=O)*

One data set deals with T1, human F1Fo-ATPase (Homo sapiens, UniProt P06576).
T1 construct: Human F1Fo-ATPase was purified from HepG2 cells by immunocapture; endogenous in cells; host or cells: HepG2 cells; complex isolated by immunocapture with anti-ATP synthase antibody 12F4AD8AF8 (#ab109867, Abcam)
Nature of the data set: Surface plasmon resonance (SPR) binding to purified human F1Fo-ATPase. The conditions noted are these: SPR single-cycle kinetics; His-tag / biotin variant of peptide immobilized, F1Fo-ATPase as analyte; read-out: KD (affinity between F1Fo-ATPase and immobilized peptide). As for the experimental part:
Surface plasmon resonance (SPR) assays. Binding studies based on SPR technology were performed on a BIAcore T200 optical biosensor instrument (GE Healthcare®, Uppsala, Sweden). The peptide of formula (I) with C-terminal 6×His-tag (Formula (I)-His-tag: CH3CO-[SEQ ID NO: 1]-HHHHHH) and the peptide of formula (II) with C-terminal biotin (Formula (II)-Biotin: CH3CO-[SEQ ID NO: 1]-K-[palmitoyl]-AEEAc-K-[biotinyl]-NH2) were custom-synthesized by BACHEM AG (Bubendorf, Switzerland) with >90% purity in trifluoroacetate salt. Human F1Fo-ATPase was purified from HepG2 cells by immunocapture using mouse monoclonal anti-ATP synthase antibody (12F4AD8AF8, #ab109867, Abcam) according to manufacturer's instructions.
Immobilization of the peptide of formula (I)-6His-tag was performed on a nitrilotriacetic acid (NTA) sensorchip in HBS-P+ buffer (10 mM Hepes pH 7.4, 150 mM NaCl, and 0.05% surfactant P20) (GE Healthcare). To saturate the NTA surface with Ni2^+, flow cells (Fc) were loaded with 0.5 mM NiCl2 solution. The channel Fc1 was left empty and used as a reference surface for nonspecific binding measurements. Formula (I)-6×His was injected in the channel Fc2 at a flow-rate of 5 μL/min and stabilized by amine coupling (Laboratory guideline 29-0057-17 AB). The total amount of immobilized Formula (I)-His-tag was 300-350 resonance units (RU): final concentration 25 μg/mL. […]
(In general: Surface plasmon resonance follows binding to a sensor surface in real time, without labels.)

The subject of a further data set is HUVEC cells. As to the kind of experiment: Endothelial nitric oxide (NO) production, DAF-FM-DA probe. In kind it is cell-based, human. Particulars: 1 μM, 10 min; abolished by IF1. As for the experimental part: Nitric oxide (NO) was detected using a DAF-FM-DA probe (D2321, Sigma-Aldrich) which forms fluorescent benzotriazole when it reacts with NO. HUVEC cells (PromoCell #C-12203) were seeded in 96-well plates (10,000 cells per well) and cultured in endothelial cell basal medium 2 (PromoCell #C-22211) supplemented with GM2 supplement Mix (PromoCell #C-39211), until 80-90% confluence. The medium was then replaced with M-199 without serum for 4 h, and the cells were incubated for 45 min with DAF-FM-DA (5 μM) diluted in PBS. Cells were treated with increasing concentrations of the different peptides or apoA-I (10 μM) purified from human plasma or histamine (1 mM) as positive control. In another set of experiments, cells were incubated with inhibitors (IF1, 1 μM) for 10 min before treatment with peptides or apoA-I. The fluorescence was recorded for 30 min (λex=495 nm, λem=515 nm) with a Tecan Flash Multimode Reader (Thermo Fisher Scientific). Fluorescence for each condition was compared with the value obtained in untreated cells, and results were expressed as the fold change as compared with the basal condition (untreated cells).

Data set [1] deals with HepG2 cells. Nature of the data set: Oleate/palmitate-induced steatosis, intracellular triglyceride content. In kind it is cell-based, human. Particulars: 1 μM, last 24 h of 48 h oleate/palmitate 0.5 mM (2:1). As for the experimental part: A solution containing 250 mM palmitate (P0500, Sigma-Aldrich) was first prepared in 0.1 M NaOH at 70 C for 30 min then diluted in DMEM low glucose (D5546, Sigma-Aldrich) containing 10% fatty acid-free BSA (A7030, Sigma-Aldrich) to yield a 10 mM palmitate solution and allowed to dissolve for 30 min at 37° C., filter sterilized and stored in glass vial at −20 C until use. This palmitate stock solution and ready to use oleate solution (03008, Sigma-Aldrich) were used to prepared a 0.5 mM solution at a 2:1 ratio of oleate to palmitate in complete culture medium containing DMEM low glucose, 10% fetal bovine serum, 1% Penicillin-Streptomycin and 1% fatty acid-free BSA.
HepG2 cell were grown in 12-well plates to 60-70% confluence then exposed for 48 h to culture medium (DMEM low glucose, 10% fetal bovine serum, 1% Penicillin-Streptomycin and 1% fatty acid-free BSA) alone or containing 0.5 mM oleate/palmitate mixture (2:1) to induce steatosis. For the last 24 h of the 48 h period, cells were treated with 1 μM of the peptide of formula (I) or the peptide of formula (II).
For measurement of intracellular triglyceride content, cells were washed with PBS and scraped in 5% NP-40 lysis buffer and heated for 10 min at 85° C. Triglycerides were then quantified using triglyceride commercial kit (Biolabo #87319). Values were normalized to protein concentration in cell lysates.

Data set [2] concerns HepG2 cells. As to the kind of experiment: Cytotoxicity assay (MTT). In kind it is cell-based, human. The procedure:
HepG2 cells were seeded in a 96-well plate at a density of 10,000 cells/well in growth medium (DMEM high-glucose, 10% fetal bovine serum). The next day, growth medium was changed and the peptide of formula (I) was added once with ascending dose for 24 h, 48 or 72 h or for 48 h with repeating once in 24 h. Similarly, the peptide of formula (II) was added once with ascending dose for 24 h or 48 h or for 48 h with repeating once in 24 h. Cells were incubated for 4 h with 5 mg/L MTT and 100 μL of DMSO was added in the well. Absorbance was recorded at 570 and 660 nm using the microplate spectrophotometer system (Varioscan flash). Cell viability was calculated by subtracting the 570 nm absorbance to the background measured at 660 nm.

Take “Ac-RGAGSIREAGGAFGKREQAEEERYFRAQSRE-NH2 [peptide of formula (I), CH3CO-[SEQ ID NO: 1]-NH2]”: the pKd on human F1Fo-ATPase was 7.72. Moreover, the “stimulation of NO production by endothelial cells” value in the data set on HUVEC cells is “about 50%”. For the same compound, in the data set with HepG2 cells [1], the “reduction of fatty acid-induced intracellular accumulation of triglycerides compared to PBS control” value came out at 18%. Also, in the data set on HepG2 cells [2] (0.1 to 50 μM, single dose 24, 48 or 72 h, or multiple doses at 24 and 48 h), the “cell viability (MTT)” value is “no impact”.
As for `CCCCCCCCCCCCCCCC(=O)NCCCC[C@H](NC(=O)[C@H](CCC(=O)O)NC(=O)[C@H](CCCNC(=N)N)NC(=O)[C@H](CO)NC(=O)[C@H](CCC(N)=O)NC(=O)[C@H](C)NC(=O)[C@H](CCCNC(=N)N)NC(=O)[C@H](Cc1ccccc1)NC(=O)[C@H](Cc1ccc(O)cc1)NC(=O)[C@H](CCCNC(=N)N)NC(=O)[C@H](CCC(=O)O)NC(=O)[C@H](CCC(=O)O)NC(=O)[C@H](CCC(=O)O)NC(=O)[C@H](C)NC(=O)[C@H](CCC(N)=O)NC(=O)[C@H](CCC(=O)O)NC(=O)[C@H](CCCNC(=N)N)NC(=O)[C@H](CCCCN)NC(=O)CNC(=O)[C@H](Cc1ccccc1)NC(=O)[C@H](C)NC(=O)CNC(=O)CNC(=O)[C@H](C)NC(=O)[C@H](CCC(=O)O)NC(=O)[C@H](CCCNC(=N)N)NC(=O)[C@@H](NC(=O)[C@H](CO)NC(=O)CNC(=O)[C@H](C)NC(=O)CNC(=O)[C@H](CCCNC(=N)N)NC(C)=O)[C@@H](C)CC)C(N)=O` [peptide of formula (II), CH3CO-[SEQ ID NO: 1]-K-[palmitoyl]-NH2] (Ac-RGAGSIREAGGAFGKREQAEEERYFRAQSREK(Palmitoyl)-NH2), the pKd on human F1Fo-ATPase is 8.35. Further, the “stimulation of NO production by endothelial cells” value in the data set on HUVEC cells was “about 50%”. Also, the “reduction of fatty acid-induced intracellular accumulation of triglycerides compared to PBS control” value in the data set on HepG2 cells [1] is 32%. The “cell viability (MTT)” value with HepG2 cells [2] (0.1 to 25 μM, single dose 24 or 48 h, or multiple doses at 24 and 48 h) is “no impact”.

Source of the values: patent US20230050846A1, “TREATMENT OF HEPATIC AND CARDIOVASCULAR DISORDERS” (LIFESEARCH, priority 2019, published 2023).
